Results: PubChem BioAssay AID1871 (NMMLSC, 2009)
Calls of active or inactive are those of the source. How the calls were made is not given here.

Biological target: Regulator of G-protein signaling 7 (Homo sapiens) (UniProt P49802)
Assay: potency of compounds altering RGS7-Galphao association – biochemical, multiplexed bead flow cytometry, dose response (AID 1871)
Settings: bead-based flow cytometry, RGS7-Galphao binding; for Ki: measured here: Ki for RGS7-Galphao

Chain of Regulator of G-protein signaling 7 (Homo sapiens) (P49802 whole entry, looked up): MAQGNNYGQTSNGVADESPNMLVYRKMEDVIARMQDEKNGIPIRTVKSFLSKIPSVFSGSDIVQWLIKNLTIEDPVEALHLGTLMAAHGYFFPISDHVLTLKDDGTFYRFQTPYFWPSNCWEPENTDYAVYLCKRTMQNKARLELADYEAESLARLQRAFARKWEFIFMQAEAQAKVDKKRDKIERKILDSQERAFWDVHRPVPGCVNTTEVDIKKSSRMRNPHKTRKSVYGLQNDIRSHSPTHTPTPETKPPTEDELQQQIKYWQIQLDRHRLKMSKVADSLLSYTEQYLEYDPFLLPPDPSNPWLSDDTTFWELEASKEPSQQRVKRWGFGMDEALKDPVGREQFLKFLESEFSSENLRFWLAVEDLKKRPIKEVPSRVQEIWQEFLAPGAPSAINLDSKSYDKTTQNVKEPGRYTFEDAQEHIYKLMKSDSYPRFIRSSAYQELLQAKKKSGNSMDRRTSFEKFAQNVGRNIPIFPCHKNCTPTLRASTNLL

SMILES | Ki [µM] | EC50
CC(=O)N(O)CCCCCNC(=O)CCC(=O)N(O)CCCCCNC(=O)CCC(=O)N(O)CCCCCN | 1.05 | 
O=C(Cc1csc(N2CCOCC2)n1)N/N=C/c1ccc(O)c(O)c1O | 7.67 | 
CN=c1scc(C)n1/N=C/c1ccc(O)c(O)c1O | 8.75 | 
CCOc1ccccc1-c1c2cc(O)c(=O)cc-2oc2cc(O)c(O)cc12 | 6.17 | 
O=C1CCC(=O)N(O)CCCCCNC(=O)CCC(=O)N(O)CCCCCNC(=O)CCC(=O)N(O)CCCCCN1 | 2.01 | 
O=C(O[C@@H]1OC2COC(=O)c3cc(O)c(O)c(O)c3-c3c(cc(O)c(O)c3O)C(=O)O[C@@H]([C@H]1O)[C@@H]2O)c1cc(O)c(O)c(O)c1 | 0.98 | 
CN(C)c1ncc(C2=C(Cl)C(=O)C(N3CCCC3)=C(Cl)C2=O)s1 | 1.15 | 
CN(C)[C@@H]1C(=O)C(C(=O)NCN2CCCC2)=C(O)[C@@]2(O)C(=O)C3=C(O)c4c(O)cccc4[C@@](C)(O)C3CC12 (stereo partly drawn) | 3.7 | 4.35 µM
CC1(C)OC(=O)C(=Cc2ccc(-c3ccc(S(N)(=O)=O)cc3)o2)C(=O)O1 | 4.87 | 
O=C1CCCC2=C1C(c1cccs1)n1ncnc1N2 (stereo not drawn) |  | > 30 µM (inactive)
Nc1c(C(=O)NCC2CCCO2)sc2nc3c(c(-c4ccco4)c12)CC/C3=C\c1ccco1 (stereo not drawn) | 3.12 | 
O=[N+]([O-])c1ccc(Sc2cccc[n+]2[O-])c2nonc12 | 4.06 | 
CC(C)Sc1nc2ccc(N3C(=O)C4CCCCC4C3=O)cc2s1 (stereo not drawn) |  | > 30 µM (inactive)
CCNc1ccc2noc3c2c1C(=O)c1ccccc1-3 | 22.2 | 
CCN(CC)S(=O)(=O)c1cccc(C(=O)N/N=C/c2ccc(O)c(O)c2O)c1 | 3.3 | 
CCCNC(=O)Cn1sc2nc(C)cc(C)c2c1=O | 4.08 | 
COc1ccc(Br)cc1/C=N/Nc1cccc(C(=O)O)c1 |  | > 30 µM (inactive)
CCOC(=O)N=Nc1c(O)n(C)c2ccccc12 |  | > 30 µM (inactive)

SMILES | Ki [µM] | EC50
O=C(O)C[C@@H]1C(=O)O[C@@H]2C(COC(=O)c3cc(O)c(O)c(O)c3)O[C@@H](OC(=O)c3cc(O)c(O)c(O)c3)[C@@H](OC(=O)c3cc(O)c(O)c4c3[C@H]1[C@H](O)C(=O)O4)[C@H]2OC(=O)c1cc(O)c(O)c(O)c1 (stereo partly drawn) | 0.51 | 
O=C1C(Cl)=C(N2CCCCC2)C(=O)C(Cl)=C1c1cnc(N2CCCCC2)s1 | 0.71 | 
C/C(=N/NC(=O)c1cc(O)c(O)c(O)c1)c1ccc([N+](=O)[O-])cc1 | 18.1 | 
O=C(OCC1O[C@@H](OC(=O)c2cc(O)c(O)c(O)c2)[C@@H](OC(=O)c2cc(O)c(O)c(O)c2)[C@@H](OC(=O)c2cc(O)c(O)c(O)c2)[C@@H]1OC(=O)c1cc(O)c(O)c(O)c1)c1cc(O)c(O)c(O)c1 (stereo partly drawn) | 0.37 | 
CCN=c1scc(C)n1/N=C/c1ccc(O)c(O)c1O | 11.9 | 
COc1ccc(OC)c(CCNC(=O)Cn2sc3nc(C)cc(C)c3c2=O)c1 | 3.45 | 
COc1ccc(C2=CC(=O)C=CC2=O)cc1 | 8.17 | 
O=c1[nH]c(=S)n(Cc2ccco2)c(O)c1C=NCc1cccs1 |  | > 30 µM (inactive)
CCC(=O)NC(c1ccc(C)cc1)c1cc([N+](=O)[O-])c2cccnc2c1O (stereo not drawn) | 11.4 | 
COCCCNC(=O)c1ccc2c3c(onc13)-c1ccccc1C2=O | 1.48 | 
CCOC(=O)/C(C(=O)Nc1ccccc1Cl)=C1/NC(C)(C)Cc2ccccc21 |  | > 30 µM (inactive)
O=C(COc1ccccc1C(=O)N/N=C\c1ccc(O)c(O)c1)N/N=C/c1ccc(O)c(O)c1 | 1.94 | 
O=C1OCC2OC(O)C(O)C(O)C2OC(=O)c2cc(O)c(O)c(O)c2-c2c(O)c(O)c3oc(=O)c4c(c(O)c(O)c5oc(=O)c2c3c54)-c2c1cc(O)c(O)c2O (stereo not drawn) | 1.75 | 
CCOC(=O)C1=C(C)NC(C)=C(C(=O)OCCNC(=O)c2cccnc2)C1c1cccc([N+](=O)[O-])c1 (stereo not drawn) |  | > 30 µM (inactive)
CN1CCN(C2=C(Cl)C(=O)C(c3cnc(N4CCCCC4)s3)=C(Cl)C2=O)CC1 | 0.15 | 
O=c1c2ccccc2sn1-c1ccc(S(=O)(=O)N2CCCC2)cc1 | 0.53 | 
CCC(=O)NC1=C(Cl)C(=O)C(NC(=O)CC)=C(Cl)C1=O | 3.33 | 
NS(=O)(=O)c1ccc(N/N=C/c2ccc(O)c(O)c2O)c([N+](=O)[O-])c1 | 1.66 | 1.95 µM
